Literature values as cited in patent US11896675B2, “Site-specific antibody conjugation and antibody-drug conjugate as specific embodiment thereof” (AbTis Co., Ltd., priority 2019, dated 2024).
Square brackets hold non-standard residues; d marks the D form. Ends that are not written are not given here. Cit = NC(=O)NCCC[C@H](N)C(=O)O

Tests used:
IgG [1] = conditions: towards IgG
IgG [2] = conditions: towards IgG, obtained at different conditions or by different methods; for Kd: read-out: Binding Constant Kd

## APAR [comb. tetrapeptide library peptide]
IgG [1]
  Binding Capacity (maximal binding capacity qm): 9.1 mg/mL
IgG [2]
  Kd: 0.094 µM

## D2AAG (DDAAG) [Compound D2AAG, comb. library ligand, SpA mimic]
IgG [1]
  Binding Capacity (maximal binding capacity qm): 36.2 mg/mL
IgG [2]
  Binding Constant Ka: Ka = 7.9 × 10^5M^−1

## DAAG [comb. library ligand, SpA mimic]
IgG [1]
  Binding Capacity (maximal binding capacity qm): 49.6 mg/mL
IgG [2]
  Binding Constant Ka: Ka = 2.6 × 10^5M^−1

## EPIHRSTLTALL [phage display library peptide, SpA mimic]
IgG [1]
  Binding Capacity: 320 µg/g

## FRRHL [comb. library peptide, SpA mimic]
IgG [1]
  Binding Capacity (maximal binding capacity qm): 33.6 mg/mL
IgG [2]
  Kd: 26 µM

## FYCHTIDE [FYCHTIDE(3)]
IgG [1]
  Binding Capacity (maximal binding capacity qm): 63.7 mg/mL
IgG [2]
  Kd: 5.7 µM

## FYCHWALE
IgG [1]
  Binding Capacity (maximal binding capacity qm): 87.6 mg/mL
IgG [2]
  Kd: 6.1 µM

## FYWHCLDE
IgG [1]
  Binding Capacity (maximal binding capacity qm): 104.2 mg/mL
IgG [2]
  Kd: 1.5 µM

## HWCitGWV (HW[Cit]GWV) [comb. library peptide, SpA mimic]
IgG [1]
  Binding Capacity (maximal binding capacity qm): 78 mg/mL
IgG [2]
  Kd: 108 µM

## HWRGWV [comb. library peptide, SpA mimic]
IgG [1]
  Binding Capacity (maximal binding capacity qm): 26.4 mg/mL
IgG [2]
  Kd: 10 µM

## HYFKFD [comb. library peptide, SpA mimic]
IgG [1]
  Binding Capacity (maximal binding capacity qm): 27.0 mg/mL
IgG [2]
  Kd: 11 µM

## KHRFNKD [phage-display library peptide, SpA mimic]
IgG [2]
  Kd: 0.02 µM

## NARKFYKG [spot peptide array peptide]
IgG [1]
  Binding Capacity, DBC (dynamic binding capacity): DBC-5.0
IgG [2]
  Binding Constant Ka: Ka = 6.5 × 10^6M^−1

## NKFRGKYK [spot peptide array peptide]
IgG [1]
  Binding Capacity, DBC (dynamic binding capacity): DBC-4.9
IgG [2]
  Binding Constant Ka: Ka = 8.6 × 10^6M^−1

## RRGW
IgG [2]
  Kd: 0.0005 µM

## cyclo[(Link-M-WFRHYK]
IgG [1]
  Binding Capacity (maximal binding capacity qm): 19.7 mg/mL
IgG [2]
  Kd: 7.6 µM
